Assay results as given in patent publication US7230139B2, “Diterpenoid compounds, compositions thereof and their use as anti-cancer or anti-fungal agents” (priority 2004, dated 2007).

Tests used:
[1] = tested on: Saccharomyces cerevisiae strain W303a; assay: Yeast growth inhibition (OD600); assay type: cell-based; details: dilution series, YEP with glucose, galactose or glycerol, 30° C.; dose-dependent
Method: (§1) Yeast cells were first cultured overnight in 10 mL of YEP glucose-containing medium at 30° C. The following day, 5 μL of the overnight culture (5–6×10^3 cells) was added to 100 μL of YEP media supplemented with 2% of one of the three carbon sources mentioned above in a 96-well microtitre plate. To these cultures a dilution series of Compound 50 was added. Compound 50 was prepared as a stock solution in 100% dimethyl sulfoxide (DMSO) at a concentration of 10 mM. Serial dilutions were prepared in distilled water. The final DMSO concentration in each well was 0.5%. Yeast cells were grown at 30° C. and cell growth was monitored by reading the OD600 (optical density at 600 nm) with a Tecan ULTRA plate reader (TECAN U.S. Inc., Research Triangle Park, N.C., USA). […] Accordingly, Compound 50, an illustrative Diterpenoid Compound, is useful for inhibiting the growth of a fungus or treating a fungal infection.

[2] = Solubility by filtration and LC/MS; assay type: physicochemical; details: in water (printed for Compound 74)
Method: To determine whether a compound is soluble in a solution, the solution was filtered on […] polytetrafluoroethylene filters (Whatman Inc. Clifton, N.J., USA) and the compound concentration in the filtrate was measured by LC/MS and compared to the expected concentration. If the concentration of the compound in the filtrate was equal +/−15% to the expected concentration, the compound was judged to be soluble in the solution.
The detection of Compound 74 or Compound 50 by LC/MS was carried out using the HPLC system that consisted of a Waters Alliance quaternary gradient HPLC pump (Waters, Milford, Mass., USA) and a ZQ2000 single quadrupole mass spectrometer (Waters, Milford, Mass., USA). The column used was XTerra MS C18: 50×2.1 mm, […] column at 20° C. Samples were injected and separated under the following conditions: The mobile phase “A” consisted of 5 mM ammonium formate, 0.1% formic acid in water and mobile phase “B” consisted of 5 mM ammonium formate, 0.1% formic acid in methanol. A linear gradient was applied as follows: 0 to 1 min, 94% “A” and 6% “B”; 1 to 4 min, 6% to 100% “B”; 4 to 8 min 100% “B”; 8 to 9 min, 100% “B” to 6% “B”; 9 to 12 min, 94% “A” and 6% “B”. […] Compounds were detected at m/z equal to their respective molecular weight plus 1.

[3] = tested on: Candida albicans strain ATCC 10231; assay: Fungus growth inhibition (OD600); assay type: cell-based; details: dilution series, YEP glucose, 30° C.; dose-dependent
Method: as §1, with “Fungus” for “Yeast”, “glucose-containing medium” for “media supplemented with 2% of one of the three carbon sources mentioned above”, “Ultra” for “ULTRA”, “Inc.” for “Inc.,”

[4] = tested on: SW480 human colon carcinoma cancer cells; assay: SW480 colon carcinoma xenograft in SCID mice; assay type: in vivo, CB17 SCID/SCID female mice; details: i.v. 10 mg/kg once a day for five days
Method: The resultant mice are a model for a human having colon carcinoma cancer.
The SW480 human colon carcinoma cancer cells were maintained in RPMI supplemented with 10% inactivated fetal bovine serum and 1% penicillin-streptomycin-L-Glutamine, under 5% CO2 at 37° C., and passaged twice a week. The cells were grown at a confluency lower than 70% and then collected with Trypsin (Bio-Whittaker, Md., USA). The cells were then centrifuged and washed twice using phosphate buffered saline solution (PBS) and resuspended in PBS at 1×10^6 cells per 100 μl. Viability was examined by staining with Trypan Blue and only flasks with cell viability of greater than 95% were used for in vivo studies.
SW480 cells were transplanted subcutaneously into the flank of female CB 17 SCID/SCID mice. Each mouse was inoculated with a suspension of 1×10^6 tumor cells per 100 μL on day zero. The following five treatment groups of ten mice each were used: (a) a negative control group treated with intravenous (i.v.) injection of vehicle, (b) a group treated with i.v. injection of a Compound 50, (c) a group treated with i.v. injection of a Compound 50a, (d) a group treated with i.v. injection of Compound 50b, (e) a group treated with i.v. injection of Compound 74a.
Treatment started on day twelve after SW480 cells transplantation and Compounds 50, 50a, 50b and 74a were administered i.v. once daily for five consecutive days at a dose of 10, 10, 10 and 50 mg/kg, respectively. Compound 50, 50a and 50b were prepared as a working solution of 1.5 mg/mL in a vehicle solution of 20% Cremaphor EL (Sigma, St. Louis, Miss., USA), and 10% Ethanol. Compound 74a was prepared as a working solution of 5 mg/mL in a vehicle solution of 5% Dextrose (Abbot Laboratories, QC, Canada). The negative control groups were treated with vehicle solution of 20% Cremaphor EL and 10% Ethanol alone.
The mice were weighed and the tumors measured on day 12 and every 2 to 3 days after treatment commenced. Observations continued for 23 days after initial tumor implantation. The changes in body weight and in the calculated tumor volume were plotted (FIGS. 9 and 10). Statistical analysis was performed using GraphPad Prism (GraphPad Software Inc., San Diego, Calif.). Two-way ANOVA was used to determine how the treatment affected tumor growth over time. Following the two-way ANOVA, post-tests were performed using the Benferroni method to determine the statistical difference between the mean tumor-size of the two groups being compared on every day that the tumors were measured.

Q: With `COc1ccc2c(c1)C1(C)C=CC(=O)C(C)(C)C1=C(O)C2=O` (racemic) [Compound 50] as the compound, how does the “Growth of Saccharomyces cerevisiae” value [1] read?
A: Its value is “significantly inhibited growth”.

Q: And the solubility [2]?
A: The solubility was under 100 µg/mL.

Q: And the “Growth of Candida albicans” value [3]?
A: Its value is “significantly inhibited growth”.

Q: And the “Tumor growth compared to vehicle” value [4]?
A: Its value is “significant reduction (p<0.001)”.
